From article PMC4512239 (Clinical cancer research : an official journal of the …, 2015)

Key:
[1] = tested on: CYP isozymes; experiment: metabolism in human hepatocytes and heterologously expressed CYP isozymes; type: in vitro ADME
[2] = tested on: p-AKT (S473) in PRP; experiment: p-AKT in platelet-rich plasma by Meso Scale Discovery immunoassay; type: in vivo, human

For `CNC(=O)c1cccc(-c2ccc3c(N4CCOC[C@@H]4C)nc(N4CCOC[C@@H]4C)nc3n2)c1` [AZD2014], the “metabolising CYP isozymes” value [1] was “primarily metabolised by CYP 3A5 and 2C8 with some contribution from 3A4”, the “mean % change from baseline in p-AKT” value ([2]; 50 mg, 24 hours (12 hours after the 2nd BD dose)) was −2% and the “mean % change from baseline in p-AKT” value ([2]; single 50 mg dose, 6-8 hours) was −37%. The “mean % change from baseline in p-AKT” value ([2]; single 50 mg dose, 2 hours) was −62%.
